Measurements from US10300058B2, “Tyrosine kinase inhibitor and uses thereof” (Xuanzhu Pharma Co., Ltd., priority 2014, dated 2019).

Key:
wild-type EGFR (WT EGFR) = wild-type EGFR (WT EGFR) (Homo sapiens (Human), UniProt P00533); assay: Mobility Shift Assay, in vitro enzyme-inhibiting activity, wild-type EGFR; assay type: biochemical; settings: Km ATP
Protocol: (§1) 1. Preparation of Reagents
(§2) 2. Preparation of a Compound Solution
(§3) (1) To the second well of a 96-well plate, 5 μL 10 mM compound (dissolved in DMSO) was added, and 95 μL 100% DMSO was added to prepare 100 μL 0.5 mM compound.
(§4) (2) To other wells, 60 μL 100% DMSO was added. 20 μL compound from the second well was added to the third well, and 4-fold dilution was further performed to get 10 diluted concentrations.
(§5) (3) To the first well and the twelfth well of the 96-well plate, 100 μL 100% DMSO was separately added, and the two wells were used as control wells.
(§6) (4) 10 μL from each well of the 96-well plate was added to another 96-well plate, and 90 μL 1-fold kinase buffer was added.
(§7) (5) 5 μL from the 96-well plate was added to another 384-well plate, for example, transferred from A1 well of the 96-well plate to A1 and A2 wells of the 384-well plate, and transferred from A2 well of the 96-well plate to A3 and A4 wells of the 384-well plate, and so on.
(§8) To 384-well plate, 10 μL 2.5-fold enzyme solution was added, and incubated at room temperature for 10 min.
(§9) (5) Kinase reaction and stop
(§10) After incubation at 28° C. for a period of time (depending on kinase), 25 μL stop solution was added.
(§11) 4. Data on percent conversion was read by Caliper.
(§12) (1) Data on enzyme activity was obtained by Caliper program;
(§13) (2) Inhibition rate of enzyme activity was calculated from the data on enzyme activity by the following formula: Inhibition rate(%)=(maximal value−the measured value of a test compound)/(maximal value-minimal value)×100,
(§14) wherein, the maximal value represents the measured value of DMSO control; and the minimal value represents the measured value of blank control.
(§15) (3) Calculation of IC50 value by XLFit excel.

EGFR T790M = EGFR T790M (Homo sapiens (Human), UniProt P00533, T790M); assay: Mobility Shift Assay, in vitro enzyme-inhibiting activity, EGFR T790M; assay type: biochemical; settings: for IC50: Km ATP; for Selectivity (WT/T790M): ratio of IC50
EGFR T790M, sequence (P00533 25-1210 T790M): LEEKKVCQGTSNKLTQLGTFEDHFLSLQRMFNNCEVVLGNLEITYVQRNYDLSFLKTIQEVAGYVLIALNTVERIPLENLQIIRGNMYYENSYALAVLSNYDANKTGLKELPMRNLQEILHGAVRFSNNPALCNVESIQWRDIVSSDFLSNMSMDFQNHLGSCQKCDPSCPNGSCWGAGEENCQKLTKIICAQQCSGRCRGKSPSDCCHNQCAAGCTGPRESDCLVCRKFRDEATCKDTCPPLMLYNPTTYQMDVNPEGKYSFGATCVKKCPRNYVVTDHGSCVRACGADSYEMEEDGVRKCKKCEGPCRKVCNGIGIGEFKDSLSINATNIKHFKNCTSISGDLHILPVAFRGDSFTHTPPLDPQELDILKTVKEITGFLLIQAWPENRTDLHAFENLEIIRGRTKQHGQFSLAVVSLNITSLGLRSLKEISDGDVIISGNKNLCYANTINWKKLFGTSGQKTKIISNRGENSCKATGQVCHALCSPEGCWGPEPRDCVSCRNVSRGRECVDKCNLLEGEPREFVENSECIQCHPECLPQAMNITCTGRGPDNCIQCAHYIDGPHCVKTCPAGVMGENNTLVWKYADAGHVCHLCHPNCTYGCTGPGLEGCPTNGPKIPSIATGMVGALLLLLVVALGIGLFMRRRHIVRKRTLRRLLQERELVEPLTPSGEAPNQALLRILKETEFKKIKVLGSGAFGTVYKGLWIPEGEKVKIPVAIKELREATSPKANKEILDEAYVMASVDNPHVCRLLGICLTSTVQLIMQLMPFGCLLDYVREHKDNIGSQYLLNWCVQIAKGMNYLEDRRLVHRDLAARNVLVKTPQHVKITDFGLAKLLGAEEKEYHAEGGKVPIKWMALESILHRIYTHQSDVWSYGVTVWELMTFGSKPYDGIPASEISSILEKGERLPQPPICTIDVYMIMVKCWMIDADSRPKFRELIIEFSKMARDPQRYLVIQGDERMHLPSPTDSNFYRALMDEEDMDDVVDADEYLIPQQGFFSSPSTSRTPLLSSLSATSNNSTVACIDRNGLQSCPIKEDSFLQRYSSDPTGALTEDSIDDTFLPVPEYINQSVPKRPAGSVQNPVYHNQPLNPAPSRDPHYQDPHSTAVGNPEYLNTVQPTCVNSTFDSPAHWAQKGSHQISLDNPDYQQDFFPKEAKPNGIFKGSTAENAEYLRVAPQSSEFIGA
Protocol: as §1, §2, §3, §4, §5, §6, §7, §8, §9, §10, §11, §12, §13, §14, §15

EGFR L858R = EGFR L858R (Homo sapiens (Human), UniProt P00533, L858R); assay: Mobility Shift Assay, in vitro enzyme-inhibiting activity, EGFR L858R; assay type: biochemical; settings: Table 6
EGFR L858R, sequence (P00533 25-1210 L858R): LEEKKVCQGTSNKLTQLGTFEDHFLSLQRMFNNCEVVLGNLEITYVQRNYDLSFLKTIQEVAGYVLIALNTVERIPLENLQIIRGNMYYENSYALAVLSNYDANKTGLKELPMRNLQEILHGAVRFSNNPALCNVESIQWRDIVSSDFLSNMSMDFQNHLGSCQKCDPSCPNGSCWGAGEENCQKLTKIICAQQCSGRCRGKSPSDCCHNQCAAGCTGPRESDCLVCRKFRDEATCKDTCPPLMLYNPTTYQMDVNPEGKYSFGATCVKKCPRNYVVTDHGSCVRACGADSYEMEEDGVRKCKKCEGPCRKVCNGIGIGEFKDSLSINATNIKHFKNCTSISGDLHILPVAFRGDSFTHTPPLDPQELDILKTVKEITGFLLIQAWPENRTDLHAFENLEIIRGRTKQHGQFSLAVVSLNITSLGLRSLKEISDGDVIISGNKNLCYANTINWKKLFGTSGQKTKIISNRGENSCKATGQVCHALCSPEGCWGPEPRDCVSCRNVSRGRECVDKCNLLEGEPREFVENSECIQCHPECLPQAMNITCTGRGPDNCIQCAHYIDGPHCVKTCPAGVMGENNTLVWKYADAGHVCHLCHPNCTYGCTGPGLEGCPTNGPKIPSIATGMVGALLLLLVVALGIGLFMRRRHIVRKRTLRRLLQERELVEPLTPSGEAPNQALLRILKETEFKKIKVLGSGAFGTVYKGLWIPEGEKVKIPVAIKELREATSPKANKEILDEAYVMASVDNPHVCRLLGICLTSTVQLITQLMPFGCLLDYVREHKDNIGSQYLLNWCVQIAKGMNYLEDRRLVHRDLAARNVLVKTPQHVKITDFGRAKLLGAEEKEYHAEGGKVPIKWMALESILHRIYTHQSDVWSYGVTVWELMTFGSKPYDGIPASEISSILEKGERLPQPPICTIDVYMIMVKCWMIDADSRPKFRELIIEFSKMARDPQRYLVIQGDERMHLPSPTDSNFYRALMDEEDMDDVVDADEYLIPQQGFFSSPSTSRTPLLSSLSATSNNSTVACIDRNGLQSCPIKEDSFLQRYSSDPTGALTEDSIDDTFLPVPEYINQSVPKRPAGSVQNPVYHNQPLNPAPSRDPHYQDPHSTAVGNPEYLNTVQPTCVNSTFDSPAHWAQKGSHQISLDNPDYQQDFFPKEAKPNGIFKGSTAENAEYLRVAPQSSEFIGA
Protocol: as §1, §2, §3, §4, §5, §6, §7, §8, §9, §10, §11, §12, §13, §14, §15

EGFR T790M-L858R = EGFR T790M-L858R (Homo sapiens (Human), UniProt P00533, L858R/T790M); assay: Mobility Shift Assay, in vitro enzyme-inhibiting activity, EGFR T790M-L858R; assay type: biochemical; settings: Table 6
Protocol: as §1, §2, §3, §4, §5, §6, §7, §8, §9, §10, §11, §12, §13, §14, §15

EGFR (d746-750) = EGFR (d746-750) (Homo sapiens (Human), UniProt P00533, DEL746-750); assay: Mobility Shift Assay, in vitro enzyme-inhibiting activity, EGFR (d746-750); assay type: biochemical; settings: Table 6
EGFR (d746-750), sequence (P00533 other isoform, or with tags, fused parts or gaps del 1-668/del 746-750 limits assumed): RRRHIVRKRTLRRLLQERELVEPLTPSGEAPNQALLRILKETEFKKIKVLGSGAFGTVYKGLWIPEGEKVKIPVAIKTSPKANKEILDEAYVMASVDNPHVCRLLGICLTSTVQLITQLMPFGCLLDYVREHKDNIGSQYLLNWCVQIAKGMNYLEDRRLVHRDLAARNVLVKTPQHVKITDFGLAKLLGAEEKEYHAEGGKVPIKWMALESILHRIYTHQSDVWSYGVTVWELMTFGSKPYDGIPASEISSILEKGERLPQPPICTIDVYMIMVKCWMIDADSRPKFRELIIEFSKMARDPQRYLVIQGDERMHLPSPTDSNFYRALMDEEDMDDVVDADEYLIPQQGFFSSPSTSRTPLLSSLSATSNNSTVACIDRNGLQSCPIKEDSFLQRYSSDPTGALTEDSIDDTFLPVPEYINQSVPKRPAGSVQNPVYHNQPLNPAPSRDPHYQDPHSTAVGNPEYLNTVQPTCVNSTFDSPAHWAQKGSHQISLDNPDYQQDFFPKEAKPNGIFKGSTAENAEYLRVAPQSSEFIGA
Protocol: as §1, §2, §3, §4, §5, §6, §7, §8, §9, §10, §11, §12, §13, §14, §15

EGFR (d746-750)-T790M = EGFR (d746-750)-T790M (Homo sapiens (Human), UniProt P00533, DEL746-750/T790M); assay: Mobility Shift Assay, in vitro enzyme-inhibiting activity, EGFR (d746-750)-T790M; assay type: biochemical; settings: Table 6
EGFR (d746-750)-T790M, sequence (P00533 other isoform, or with tags, fused parts or gaps T790M/del 1-668/del 746-750 limits assumed): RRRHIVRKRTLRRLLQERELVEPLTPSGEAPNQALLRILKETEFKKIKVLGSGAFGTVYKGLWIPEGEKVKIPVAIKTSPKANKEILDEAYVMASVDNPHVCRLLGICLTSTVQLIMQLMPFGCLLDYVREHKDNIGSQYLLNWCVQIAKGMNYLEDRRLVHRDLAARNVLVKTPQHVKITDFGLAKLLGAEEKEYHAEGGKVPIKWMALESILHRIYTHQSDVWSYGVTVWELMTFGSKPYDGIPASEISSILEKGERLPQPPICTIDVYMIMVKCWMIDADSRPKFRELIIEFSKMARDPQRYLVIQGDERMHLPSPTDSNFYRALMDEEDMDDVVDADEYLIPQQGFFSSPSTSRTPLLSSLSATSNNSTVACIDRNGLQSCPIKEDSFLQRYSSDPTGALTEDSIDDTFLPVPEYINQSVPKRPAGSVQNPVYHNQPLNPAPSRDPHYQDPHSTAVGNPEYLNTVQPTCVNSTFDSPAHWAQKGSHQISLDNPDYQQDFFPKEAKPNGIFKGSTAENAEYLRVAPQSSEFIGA
Protocol: as §1, §2, §3, §4, §5, §6, §7, §8, §9, §10, §11, §12, §13, §14, §15

[1] = test system: H1975 cell (EGFR-T790M/L858R double mutation); assay: In vitro cytologic activity, Celltiter-Glo, H1975 cells; assay type: cell-based, human; settings: Table 10; for IC50: Homo sapiens, NCI-H1975, 72 h, 72 h, Celltiter-Glo, unit inferred; for Selectivity (A431/H1975): ratio of IC50
Protocol: (§16) 1.1 Preparation of Cell Suspension
(§17) Culture medium was removed from culture bottle;
(§18) PBS was added to wash the cells; • pancreatin was added for digestion, and the cells were collected by centrifugation; • the cells were resuspended in a culture medium containing 10% fetal bovine serum, counted and adjusted to a concentration of 2×10^4/mL or 3×10^4/mL (cell viability must be greater than 90%); • the cell suspension was added to a 96-well plate, at 100 μL for each well, i.e., 2000/well for H1975 cell; 3000/well for A431 cell; and • the cells were cultured at 37° C. in 5% CO2 incubator overnight.
(§19) Dilution of a compound in DMSO (or water for injection) • (1) The compound was 5-fold diluted with DMSO from 10 mM to 2 mM, and then 4-fold diluted from 2 mM, to get 10 concentrations; • High control (HC, control without compound inhibition): 0.5% DMSO; • Low control (LC, control with compound inhibition): 1000 nM.
(§20) i. To each well, 99 μL growth medium containing 10% FBS was added, and then 1 μL diluted compound was added, the total volume of the well was […], and the final concentration of the compound was measured.
(§21) The test plate was left at room temperature, and equilibrated for 30 min. 80 μL culture medium was discarded. 60 μL CTG reagent (Celltiter-Glo kit) was added, and shaked for 2 min in a fast shaker, and was placed at room temperature for 10 min. The values were read by Envision instrument.

[2] = test system: A431 cell (wild-type EGFR gene); assay: In vitro cytologic activity, Celltiter-Glo, A431 cells; assay type: cell-based; settings: Homo sapiens, A-431, 72 h, Table 10, unit inferred
Protocol: as §16, §17, §18, §19, §20, §21

wild-type EGFR (WT EGFR), sequence (P00533 25-1210): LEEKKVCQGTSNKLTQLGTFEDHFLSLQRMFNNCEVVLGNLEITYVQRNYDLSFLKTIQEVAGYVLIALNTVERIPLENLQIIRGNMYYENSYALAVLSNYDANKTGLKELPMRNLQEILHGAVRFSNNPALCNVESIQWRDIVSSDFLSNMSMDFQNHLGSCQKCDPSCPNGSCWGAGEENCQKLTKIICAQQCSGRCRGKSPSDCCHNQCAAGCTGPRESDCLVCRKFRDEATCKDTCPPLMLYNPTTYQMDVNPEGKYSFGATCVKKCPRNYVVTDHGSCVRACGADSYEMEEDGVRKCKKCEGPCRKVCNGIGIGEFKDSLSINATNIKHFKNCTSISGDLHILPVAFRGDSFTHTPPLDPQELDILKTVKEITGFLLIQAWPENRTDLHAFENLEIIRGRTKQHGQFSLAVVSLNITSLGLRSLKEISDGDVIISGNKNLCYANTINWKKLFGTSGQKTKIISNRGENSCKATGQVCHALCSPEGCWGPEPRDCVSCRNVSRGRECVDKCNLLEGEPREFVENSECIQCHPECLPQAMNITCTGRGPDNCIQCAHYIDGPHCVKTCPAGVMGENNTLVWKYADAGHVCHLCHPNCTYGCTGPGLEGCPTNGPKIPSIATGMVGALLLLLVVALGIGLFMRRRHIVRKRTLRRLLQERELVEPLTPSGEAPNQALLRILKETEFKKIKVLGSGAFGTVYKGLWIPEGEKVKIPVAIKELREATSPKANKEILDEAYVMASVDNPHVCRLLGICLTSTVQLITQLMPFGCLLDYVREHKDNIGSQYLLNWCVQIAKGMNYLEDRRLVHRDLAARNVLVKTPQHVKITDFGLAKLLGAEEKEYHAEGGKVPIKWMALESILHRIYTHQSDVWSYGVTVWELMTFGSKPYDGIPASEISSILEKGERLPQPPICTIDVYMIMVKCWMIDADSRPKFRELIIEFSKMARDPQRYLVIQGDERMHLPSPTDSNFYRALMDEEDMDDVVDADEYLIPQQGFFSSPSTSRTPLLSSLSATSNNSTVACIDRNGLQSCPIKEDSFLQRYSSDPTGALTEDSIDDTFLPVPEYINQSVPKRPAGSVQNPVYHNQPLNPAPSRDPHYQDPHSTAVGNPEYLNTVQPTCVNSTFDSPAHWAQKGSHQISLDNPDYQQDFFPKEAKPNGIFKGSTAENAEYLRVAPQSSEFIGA

| IC50 (wild-type EGFR (WT EGFR); Table 6) | IC50 (EGFR T790M; Table 6) | Selectivity (WT/T790M) (EGFR T790M; Table 6) | IC50 (EGFR L858R; Km ATP) | Selectivity WT/L858R (EGFR L858R; ratio of IC50) | IC50 (EGFR T790M-L858R; Km ATP) | Selectivity WT/T790M-L858R (EGFR T790M-L858R; ratio of IC50) | IC50 (EGFR (d746-750); Km ATP) | Selectivity WT/d746-750 (EGFR (d746-750); ratio of IC50) | IC50 (EGFR (d746-750)-T790M; Km ATP, read-out: IC50 EGFR (d746-750)-T790M) | Selectivity WT/(d746-750)-T790M (EGFR (d746-750)-T790M; ratio of IC50) | IC50 [1] | IC50 [2] | IC50 (wild-type EGFR (WT EGFR); Table 4, unit inferred) | IC50 (EGFR T790M; Table 4, unit inferred) | Selectivity (WT/T790M) (EGFR T790M; Table 4) | SMILES | Selectivity (A431/H1975) [1] |
| --- | --- | --- | --- | --- | --- | --- | --- | --- | --- | --- | --- | --- | --- | --- | --- | --- | --- |
| 0.236 µM | 0.0035 µM | 67.4 | 0.035 µM | 6.7 | 0.0033 µM | 71.5 | 0.028 µM | 8.4 | 0.0035 µM | 67.4 | 0.211 µM | 2.5 µM |  |  |  | C=CC(=O)Nc1cccc(Nc2nc(Nc3ccc(C4CCN(C)C(=O)C4)cc3OC)ncc2C(F)(F)F)c1 (centres unmarked) [Compound 21, N-(3-((2-((2-methoxy-4-(1-methyl-2-oxopiperidin-4-yl)phenyl)amino)-5-(trifluoromethyl)pyrimidin-4-yl)amino)phenyl)acrylamide] | 11.9 |
|  |  |  |  |  |  |  |  |  |  |  | 0.0285 µM | 0.247 µM | 0.082 µM | 0.0014 µM | 58.6 | C=CC(=O)Nc1cccc(Nc2nc(Nc3ccc(C4CCN(C5COC5)CC4)cc3OC)ncc2C(F)(F)F)c1 [Compound 41, N-(3-((2-((2-methoxy-4-(1-(oxetan-3-yl)piperidin-4-yl)phenyl)amino)-5-(trifluoromethyl)pyrimidin-4-yl)amino)phenyl)acrylamide] | 8.6 |
|  |  |  |  |  |  |  |  |  |  |  | 0.43 µM | 2.64 µM | 0.159 µM | 0.0036 µM | 44.2 | C=CC(=O)Nc1cccc(Nc2nc(Nc3ccc(OCCCS(C)(=O)=O)cc3OC)ncc2C(F)(F)F)c1 [Compound 43, N-(3-((2-((2-methoxy-4-(3-(methylsulfonyl)propoxy)phenyl)amino)-5-(trifluoromethyl)pyrimidin-4-yl)amino)phenyl)acrylamide] | 6.1 |
